In patent publication US11679123B2, “N-acylated hyaluronic acid for hyperuricemia and gouty arthritis” (Queen's University at Kingston, priority 2018, dated 2023):

Experiments:
[1] = tested on: xanthine oxidase (XO); assay: XO levels in serum and liver of hyperuricemic mice; type: in vivo, Balb/C mice; conditions: AL 20 mg/kg; P<0.05
Method: (§1) Due to the presence of uricase in mice, a hyperuricemic mouse model was established by using uricase inhibitor and large amounts of purine. Mice were randomly divided into five groups (n=10), including the control group (NC), model group (MC), 20 mg/kg of AL (Shimao Tianjie Pharmaceutical Co. Ltd, Jiangsu, China) group, 10 μg BHA group (10BHA) and 50 μg BHA group (50BHA). Oral administration of AL and intraperitoneal injection of BHA were administered according to the required dose, and all mice were gavage fed 20 g/kg yeast extract powder 12 h prior to the administration of AL and BHA except for NC mice for 8 days. From the 6th to 8th day, 1-h prior to AL and BHA administration, 300 mg/kg of OXO (Sigma, USA) was intraperitoneally injected to all of the mice except those in the control group. At 1 h after the final drug administration, blood was sampled from caudal veins of the mice, serum was separated and their livers were quickly collected (FIG. 3A, E). All samples were stored at −80° C. until assay measurements were performed.
(§2) The serum UA concentrations and XO levels in the serum and liver were determined with a standard diagnostic kit (MAK077, MAK078 Sigma, USA) according to the manufacturer's instructions.

[2] = tested on: hyperuricemic mice; assay: Serum UA in OXO- and yeast extract-induced hyperuricemic mice; type: in vivo, Balb/C mice; conditions: 20 mg/kg AL oral, P<0.01
Method: Male Balb/C mice (n=50, 8 weeks: 18-22 g), purchased from Yisi Experimental Animal Technology Company Ltd, Jilin, China (SCXK (Ji)-2016-0003). These mice were housed in plastic cages and maintained on a 12-h light/12-h dark cycle (lights on 7:00-19:00 h) under standard laboratory conditions of 55% relative humidity and 23±1° C. They were given standard feed and tap water ad libitum. All experimental procedures were approved by the Animal Ethics Committee of Jilin University (Reference NO. 201605).
Due to the presence of uricase in mice, a hyperuricemic mouse model was established by using uricase inhibitor and large amounts of purine. Mice were randomly divided into five groups (n=10), including the control group (NC), model group (MC), 20 mg/kg of AL (Shimao Tianjie Pharmaceutical Co. Ltd, Jiangsu, China) group, 10 μg BHA group (10BHA) and 50 μg BHA group (50BHA). Oral administration of AL and intraperitoneal injection of BHA were administered according to the required dose, and all mice were gavage fed 20 g/kg yeast extract powder 12 h prior to the administration of AL and BHA except for NC mice for 8 days. […]
as §2

[3] = tested on: factors related to oxidative stress; assay: Factors related to oxidative stress in serum and liver of hyperuricemia mice (ELISA); type: in vivo, Balb/C mice
Method: as §1
(§3) The levels of reactive oxygen species (ROS, 43355), malondialdehyde (MDA, 43124) glutathione peroxidase (GSH-Px, 43390), superoxide dismutase (SOD, 43125), catalase (CAT, 43356), creatinine (Cr, 43353) and blood urea nitrogen (BUN, 43352) in the serum and livers of mice were determined using ELISA Kits (Yuanye Bio-Technology Co. Ltd, Shanghai, China) according to the manufacturer's instructions.

[4] = tested on: creatinine (Cr) and blood urea nitrogen (BUN); assay: Cr and urea nitrogen in serum and liver of hyperuricemic mice (renal function); type: in vivo, Balb/C mice; conditions: AL
Method: as §1, §3

[5] = tested on: rats with MSU-induced acute gout; assay: MSU crystal-induced acute gout in rats: ankle swelling ratio; type: in vivo, Wistar rats; conditions: COL 0.3 mg/kg; at 12 h; P<0.05
Method: Male Wistar rats (n=50, 8 weeks: 160-200 g) were purchased from Liaoning Changsheng Biotechnology Company Ltd, Jilin, China (SCXK (Liao)-2015-0001). These rats were housed in plastic cages and maintained on a 12-h light/12-h dark cycle (lights on 7:00-19:00 h) under standard laboratory conditions of 55% relative humidity and at 23° C.±1° C. They were given standard chow (Liaoning Changsheng Biotechnology Company Ltd, Jilin, China) and tap water ad libitum. All experimental procedures were approved by the Animal Ethics Committee of Jilin University (Reference NO. 201605).
(§4) An experimental model of MSU-induced gouty arthritis was used in order to evaluate the anti-inflammatory activities of BHA. Rats were randomly divided into five groups (n=10), include a control group (NC), a model group (MC), a 0.3 mg/kg colchicine group (COL), a 10 μg BHA group (10BHA) and a 50 μg BHA group (50BHA). MSU crystals were suspended in 0.9% sterile saline (30 mg/mL) prior to use. The colchicine group rats were orally administrated colchicine (0.3 mg/kg) for 8 days, and all rats except for the control group were injected with 3 mg of MSU (Sigma, USA) at the 6th day into the right ankle synovial space 1 h after gavage feeding. Meanwhile a turbid sample of MSU mixed with 100 μg of BHA or 500 μg of BHA per mL of solution for 10BHA rats or 50BHA rats. At the 8th day, 1 h after the administration of the final agents, blood was sampled from the caudal veins of the rats and the right ankle joints of the rats were collected and fixed in 4% paraformaldehyde. Serum was separated and stored at −80° C. prior to analysis (FIG. 2A, E).
The right ankle circumferences of all rats at 0, 4, 12, 24 and 48 h after MSU injection were measured. The swelling ratio (%) was used to evaluate the gouty arthritis and calculated according to the change of the circumference via the formula: Swelling ratio (%)=(Ct−C0)/C0, wherein, Ct represented the circumference at time t (in h) and C0 represented the circumference at 0 h.

[6] = tested on: rats with MSU-induced gouty arthritis; assay: Dose screening on MSU crystals-induced acute gout in rats: ankle swelling ratio; type: in vivo, Wistar rats; conditions: n=6, COL 0.3 mg/kg, at 4 h only, P<0.05
Method: 48 male Wistar rats (8 weeks: 180-200 g), purchased from Yisi Experimental Animal Technology Company Ltd, Jilin, China (SCXK (Ji)-2016-0003), were housed in plastic cages and maintained on a 12-h light/12-h dark cycle (lights on 7:00-19:00 h) under standard laboratory conditions of 55% relative humidity and 23° C.±1° C. They were given standard chow and tap water ad libitum. All experimental procedures were approved by the Animal Ethics Committee of Jilin University (Reference NO. 201605).
An experimental model of MSU-induced gouty arthritis was used in order to evaluate the anti-inflammatory activities of BHA similar as previous studies with some modifications. Rats were randomly divided into eight groups (n=6), including control group (NC), model group (MC), 0.3 mg/kg colchicine group (COL), 5 μg BHA group (5BHA), 10 μg BHA group (10BHA), 25 μg BHA group (25BHA), 50 μg BHA group (50BHA), 100 μg BHA group (100BHA). MSU crystals were suspended in 0.9% sterile saline (30 mg/mL) prior to use. Rats in the colchicine group were orally administered colchicine (0.3 mg/kg) for 8 days. At day 6, MSU solution (100 μL of 30 mg/mL) was intra-articular injected at the right ankles of all rats except the NC group m which were injected with saline solution. 5BHA, 10BHA, 25BHA, 50BHA and 100BHA groups received intra-articular injections of 5, 10, 25, 50, or 100 μg BHA along with MSU solution (100 μL of 30 mg/mL MSU solution contains 5, 10, 25, 50 or 100 μg BHA) were administered according to the stated BHA doses.
The right ankle circumference of all rats at 0, 4, 12, 24 and 48 h after MSU injection was measured. The swelling ratio (%) was used for evaluating the gouty arthritis and calculated according to the change of the circumference following the formula: Swelling ratio (%)=(Ct−C0)/C0. Wherein, Ct represented the circumference at t hour and C0 represented the circumference at 0 hour.

[7] = tested on: inflammatory cell infiltration in the synovium; assay: Histopathological assessment of ankle joint synovium (H&E) in MSU crystal-injected rats; type: in vivo, Wistar rats; conditions: COL 0.3 mg/kg; MSU crystal-injected rats; H&E
Method: In one study, a histopathological assessment was conducted of synovium in ankle joints of rats after H&E staining. The right ankles of […] were excised and fixed in 4% paraformaldehyde, and subsequently decalcified using 10% ethylenediaminetetraacetic acid. They were then dehydrated via processing in alcohol/xylene mixtures with different proportions and concentrations. The histological sections were stained with hematoxylin and eosin. The histopathological changes of the joint synovium were assessed for the degree of inflammatory cell infiltrate, by an experienced histopathologist. Microscopy at magnifications of 40×, 100×, 200× and 400× were investigated for typical areas for each of the five groups.
The right ankles of rats were collected and fixed in 4% paraformaldehyde, and subsequently decalcified using 10% ethylenediaminetetraacetic acid. They were then dehydrated by processing in alcohol/xylene mixtures with different proportions and concentrations. The histological sections were later stained with hematoxylin and eosin for observation under an optical microscope (200×). The histopathological changes were analyzed with regard to deformaties of the joint synovium and infiltration by inflammatory cells into the ankle.

[8] = tested on: inflammation factors; assay: Serum inflammation factors by ELISA in rats with MSU-induced acute gout; type: in vivo, Wistar rats
Method: as §4
The serum levels of interleukin-1α (IL-1α, 41734), IL-1β (43360), interleukin-6 (IL-6, 41731), interleukin-8 (IL-8, 41716), IL-10 (41736), interleukin-16 (IL-16, 41628), C—X—C motif chemokine 10 (CXCL10, 41570), monocyte chemoattractant protein 1 (MCP-1, 41640), macrophage inflammatory protein 1α (MIP-1α, 41645), interferon gamma (IFN-γ, 41739), TNF-α (41721), tumor necrosis factor-β (TNF-β, 41673), nuclear factor κ-light-chain-enhancer of activated B cells (NF-κB, 43358), 6-keto-prostaglandin F-1α (6-Keto-PGF1α, 41809) and prostaglandin E2 (PGE2, 41609) in rats were determined by the ELISA method using related Elisa Kits (Yuanye Bio-Technology Co. Ltd, Shanghai, China) according to the manufacturer's instructions.

[9] = hyperuricemia mice, AL 20 mg/kg oral, mean ± S.D., n=10
[10] = serum, MSU-induced acute gout rats, COL 0.3 mg/kg oral 8 days, mean ± S.D., n=10

With `Oc1ncnc2[nH]ncc12` [AL, allopurinol, reference compound] the “reduction of XO levels in the serum compared to untreated mice” value [1] was 23.76%, the “suppression of serum UA level” value [2] was 46.38% and the “suppression of MDA level in the liver” value ([3]; AL, hyperuricemic mice, P<0.05) was 13.47%. For the same compound, the “suppression of MDA level in the serum” value ([3]; AL, hyperuricemic mice, P<0.05) was 6.66%, the “suppression of ROS level in the liver” value ([3]; AL, hyperuricemic mice, P<0.05) was 17.86% and the “suppression of ROS level in the serum” value ([3]; AL, hyperuricemic mice, P<0.05) was 9.48%. For the same compound, the “Liver CAT” value [3, 9] was 12.9 ± 1.3 U/mg, the “Liver GSH-PX” value [3, 9] was 66.1 ± 7.2 U/mg and the “Liver MDA” value [3, 9] was 3.1 ± 0.2 nmol/mg. For the same compound, the “Liver ROS” value [3, 9] was 63.2 ± 6.2 U/mg, the “Liver SOD” value [3, 9] was 48.5 ± 3.4 U/mg and the “Serum CAT” value [3, 9] was 41.6 ± 5.6 U/mL. The “Serum GSH-PX” value [3, 9] was 231.8 ± 7.7 U/mL, the “Serum MDA” value [3, 9] was 10.2 ± 0.5 nmol/mL and the “Serum ROS” value [3, 9] was 240.9 ± 23.9 U/mL. The “Serum SOD” value [3, 9] was 159.2 ± 8 U/mL, the “lowering of Cr in the liver” value ([4]; P<0.01) was 15.28% and the “lowering of Cr in the serum” value ([4]; hyperuricemic mice, P<0.05) was 11.52%. The “lowering of urea nitrogen in the liver” value ([4]; hyperuricemic mice, P<0.05) was 25.25%.
`COc1cc2c(c(OC)c1OC)-c1ccc(OC)c(=O)cc1[C@@H](NC(C)=O)CC2` [COL, colchicine, reference compound] was tested, and the “ankle swelling compared to the MSU treated group” value [5] was “suppressed ankle swelling”, the “swelling of the ankle compared to MSU treated group” value [6] was “significantly suppressed swelling of the ankle” and the “pathological changes (inflammatory cell infiltration) in synovium” value [7] was “partially prevented the pathological changes”. For the same compound, the “decrease of serum MCP-1 compared to rats injected with MSU” value ([8]; COL 0.3 mg/kg, P<0.05) was 9.93%, the 6-Keto-PGF1α [8, 10] was 266.3 ± 12.7 and the IFN-γ [8, 10] was 88.2 ± 35 pg/mL. The IL-1α [8, 10] was 74.3 ± 12.6 pg/mL, the IL-1β [8, 10] was 19.1 ± 1.2 pg/mL and the IL-6 [8, 10] was 74.7 ± 7.9 pg/mL. For the same compound, the IL-8 [8, 10] was 222.7 ± 11.5 pg/mL, the IL-10 [8, 10] was 11.5 ± 0.7 pg/mL and the IL-16 [8, 10] was 416.7 ± 16.1 pg/mL. The IP-10 [8, 10] was 153.5 ± 20.3 pg/mL, the MCP-1 [8, 10] was 311.5 ± 20.8 pg/mL and the MIP-1α [8, 10] was 294.6 ± 21.5 pg/mL. The NF-κB [8, 10] was 494.6 ± 132. pg/mL, the PGE2 [8, 10] was 207.7 ± 10^ pg/mL and the TNF-α [8, 10] was 154.8 ± 8.5 pg/mL. For the same compound, the TNF-β [8, 10] was 124.8 ± 10.5 pg/mL.
